Data on five molecules can be found in patent publication US12486237B2, “Polymorphic form of (-)-cibenzoline succinate” (CELLTRION INC., priority 2020, dated 2025).

SMILES strings stand for the structures. “Also recorded” adds a separate entry of the source.

Holding throughout (format): physicochemical
The nature of series [1]: Accelerated storage stability test (48-hour, accelerated aging conditions). The note with it: 48-hour storage, AAC 40° C./75% RH. As to the method: For the crystalline and amorphous forms of (−)-cibenzoline succinate prepared according to Examples 1 to 4 above, a 48-hour storage stability test was performed under accelerated aging conditions (AAC; 40° C./75% RH).
The nature of series [2]: Particle size analysis by laser diffraction particle analyzer. Conditions: dispersant heptane. As to the method: The particle size of the crystalline form was measured with a laser diffraction particle size analyzer under the following conditions. • Manufacturer: Malvern Instruments Limited, UK • Model: Mastersizer 2000 • Sampler: Hydro 2000 G/S Instrumental Conditions: • Particle reflection index (RI)): 1.52 • Dispersant: heptane • Absorbance: 0.1 • Refractive index of dispersant: 1.39 • Analysis model: general purpose • Sensitivity: enhanced • Absorption limit: 10-15% • Measurement time: 30 seconds (repeated three times per sample) • Agitation speed: 3500 RPM Sample Preparation:
About 150 mg of the sample was dissolved in 20 ml of 0.2% Span 85-containing heptane in a 50 ml beaker. The solution was sonicated for about 10 seconds and placed in a sampler, and when the absorption limit reached 10 to 15%, measurement was performed.
The particle size of crystalline form 3 of (−)-cibenzoline succinate prepared according to Example 4 was measured by a laser diffraction particle analyzer.

Series [3] is described as follows: Dynamic vapor sorption (DVS) analysis. As to the method:
Dynamic vapor sorption was measured using a vapor sorption analyzer under the following conditions. • Manufacturer: Surface Measurement Systems Ltd, UK • Model: DVS Adventure-I system • Analysis of crystalline form of obtained solid: HT-XRPD Relative Humidity Cycle:
Relative humidity was cycled from 40% to 95% (sorption), from 95% to 0% (desorption) and back to 40% (sorption 2). In each step, the relative humidity was changed to 10% at a constant temperature of 25° C. The weight equilibrium was set to a dm/dt of 0.002%/min.
Dynamic vapor sorption data (water sorption isotherms) were measured by a vapor sorption analyzer.

Series [4] is described as follows: Long-term storage stability at 60° C. evaluated by HT-XRPD, DSC, TGMS and UPLC. As to the method:
The high-throughput XRD of the crystalline form was analyzed under the following conditions. • Manufacturer: Bruker, USA • Model: General Area Detector Diffraction System (GADDS) • Measurement temperature: 25° C. (RT) • 2θ measurement range: 1.5 to 41.5° • Exposure time: 90 seconds • Others: Measurement of intensity and geometric parameters with a V A NTEC-500 gas area detector (Bruker, USA) 9. High-Resolution X-Ray Diffraction (XRD) Analysis
Thermogravimetric analysis coupled with mass spectroscopy for the crystalline form was performed under the following conditions. • Manufacturer: Mettler-Toledo GmbH, Switzerland • Model: TGA/DSC 3+ STARe system • Temperature range: 25 to 300° C. • Temperature rise rate: 10° C./min • Mass spectrometer: mass spectrometer Omnistar GSD 301 T2 (Pfeiffer Vacuum GmbH, Germany) 11. Differential Scanning Calorimetry (DSC) Analysis
The calorimetric analysis of the crystalline form was performed by differential scanning calorimetry (DSC) under the following conditions. • Manufacturer: Metter Toredo GmbH, Switzerland • Model: heat flux DSC3+ STARe system • Temperature rise rate: 10° C./min • Temperature range: 25 to 300° C. • N2 flow rate: 50 ml/min. 12. Karl Fischer Titration Analysis
The mass of the crystalline form was measured by ultra-performance liquid chromatography-mass spectrometer (UPLC-MS) under the following conditions. • Manufacturer: Agilent, USA • Model: Agilent 1290 • Detector 1: UV detector set at 224 nm • Detector 2: MSD XT in Positive Scan Mode • Measurement temperature: 25° C. (RT) • Column: Agilent Eclipse Plus C18 HD (50×2.1 mm; 1.8 μm) • Column temperature: 35° C. • Flow cell: 10 mm path • Gradient: Mobile phase A: 10 mM Ammonium acetate/Mobile phase B: Acetonitrile • Flow: 0.8 ml/min • Sample concentration: 0.8 mg/ml • Solvent: Water: Acetonitrile (50:50 v/v) • Injection: 1 μl • Retention time: 1.54 min 15. Analysis of Particle Size Distribution (PSD)
Crystalline form 3 of (−)-cibenzoline succinate prepared according to Example 4 was stored at 60° C. for 4 weeks, and then the long-term storage stability thereof was evaluated by HT-XRPD, DSC, TGMS and UPLC analysis.

[5] abbreviates: default reference value (before storage).

As for `O=C(O)CCC(=O)O.c1ccc(C2(c3ccccc3)C[C@@H]2C2=NCCN2)cc1` [Crystalline form 2, (−)-cibenzoline succinate], the Accelerated storage stability result in series [1] is given as “Unstable - presence of different”.
Consider `O=C(O)CCC(=O)O.c1ccc(C2(c3ccccc3)C[C@@H]2C2=NCCN2)cc1` [Reference Example, (−)-cibenzoline succinate], for which, in series [2], the D10 is on record as 17.10 μm, the D50 was 127.82 μm and the D90 is listed as 307.56 μm.
Turning to `O=C(O)CCC(=O)O.c1ccc(C2(c3ccccc3)C[C@@H]2C2=NCCN2)cc1` [Crystalline form 1, (−)-cibenzoline succinate], in series [1], the Accelerated storage stability result is “Unstable - presence of different”.
Turning to `O=C(O)CCC(=O)O.c1ccc(C2(c3ccccc3)C[C@@H]2C2=NCCN2)cc1` [Amorphous, (−)-cibenzoline succinate], the Accelerated storage stability entry in series [1] was “Unstable - presence of different”.
As for `O=C(O)CCC(=O)O.c1ccc(C2(c3ccccc3)C[C@@H]2C2=NCCN2)cc1` [Crystalline form 3, (−)-cibenzoline succinate], in series [3] (25° C., 80% relative humidity), the “water absorption rate at 80% relative humidity” value is 0.2%. Also, the “water absorbed in sorption 2” value in series [3] (25° C., relative humidity 0% back to 40%) is “absorbed almost no water”. The “water absorption rate in the sorption cycle” value in series [3] (25° C., relative humidity 40% to 95%) is listed as “up to 0.3%”. The “release of absorbed water in the desorption cycle” value in series [3] (25° C., relative humidity 95% to 0%) was “completely released”. In addition, the “crystalline form of sample obtained after DVS (HT-XRPD)” value in series [3] (after DVS cycle) is given as “maintained in Form D”. Besides, in series [3] (based on water absorption at 80% relative humidity), the “Hygroscopicity classification (European Pharmacopeia 5.0, 5.11)” value is “non-hygroscopic; also recorded: non-hydroscopic”. Moreover, in series [2], the D10 amounted to 8.80 μm, the D50 is given as 30.44 μm and the D90 amounted to 60.72 μm. This molecule also registered a D50 in series [2] (listed as crystalline form 3) of 30.44 μm. Besides, the Accelerated storage stability entry in series [1] is given as “Stable - presence of only”. Further, the Accelerated storage stability entry in series [1] (listed as crystalline form 3) is reported as “stable”. Further, in series [4] (setting [5]), the Chemical purity came to 100%, the DSC came to 193.2 °C and the “TGA mass loss rate” value came out at 0.6%. For the same molecule, the “Long-term storage stability (crystalline form and chemical purity)” value in series [4] (stored at 60° C. for 4 weeks) was “stable without changes in the crystalline form and chemical purity”. In series [4] (stored at 60° C., week 1), the Chemical purity stood at 100%, the DSC amounted to 191.2 °C and the “TGA mass loss rate” value worked out at 0.2%. In series [4] (stored at 60° C., week 4), the Chemical purity stood at 100%, the DSC came out at 191.1 °C and the “TGA mass loss rate” value amounted to 0.6%.
